Source: the NIST ThermoML archive (doi:10.1021/je900689m)
± gives the expanded uncertainty stated by the source.

Columns and labels:
[1] = 101 kPa, Liquid; for viscosity: Capillary tube (Ostwald / Ubbelohde) method
[2] = xn = mol fraction of the nth substance listed; conditions: 101 kPa, Liquid; for viscosity: Capillary tube (Ostwald / Ubbelohde) method

CC(C)Cc1ccccc1 [(2-methylpropyl)benzene]
[1]
Conditions	mass density [kg/m3]	speed of sound [m/s]	viscosity [mPa·s]
303.15 K	844.4 ± 0.7	1268 ± 6	0.905 ± 0.012
308.15 K	841.1 ± 0.8	1252 ± 6	0.848 ± 0.012
313.15 K	837.6 ± 0.8	1236 ± 6	0.784 ± 0.012

c1ccccc1 [benzene]
[1]
Conditions	mass density [kg/m3]	speed of sound [m/s]	viscosity [mPa·s]
303.15 K	867.6 ± 0.7	1276 ± 6	0.569 ± 0.011
308.15 K	863.2 ± 0.7	1252 ± 6	0.534 ± 0.011
313.15 K	858.9 ± 0.7	1228 ± 6	0.497 ± 0.011

CCCCc1ccccc1 [butylbenzene]
[1]
Conditions	mass density [kg/m3]	speed of sound [m/s]	viscosity [mPa·s]
303.15 K	851.3 ± 0.7	1308 ± 6	0.901 ± 0.012
308.15 K	848 ± 0.7	1292 ± 6	0.844 ± 0.012
313.15 K	844.6 ± 0.7	1276 ± 6	0.787 ± 0.012

CCCCc1ccccc1 [butylbenzene] + CCOC=O
[2]
Conditions	mass density, 303.15 K [kg/m3]	mass density, 308.15 K [kg/m3]	mass density, 313.15 K [kg/m3]	speed of sound, 303.15 K [m/s]	speed of sound, 308.15 K [m/s]	speed of sound, 313.15 K [m/s]	viscosity, 303.15 K [mPa·s]	viscosity, 308.15 K [mPa·s]	viscosity, 313.15 K [mPa·s]
x2 = 0	851.3 ± 0.7	848 ± 0.7	844.6 ± 0.7	1308 ± 6	1292 ± 6	1276 ± 6	0.901 ± 0.012	0.844 ± 0.012	0.787 ± 0.012
x2 = 0.1738	855.4 ± 0.7	851.9 ± 0.7	848.4 ± 0.7	1284 ± 6	1264 ± 6	1244 ± 6	0.782 ± 0.012	0.713 ± 0.011	0.65 ± 0.011
x2 = 0.3241	860.3 ± 0.7	856.6 ± 0.7	852.9 ± 0.7	1252 ± 6	1232 ± 6	1212 ± 5	0.692 ± 0.011	0.627 ± 0.011	0.571 ± 0.011
x2 = 0.4533	865.4 ± 0.7	861.5 ± 0.7	857.5 ± 0.7	1220 ± 6	1200 ± 5	1180 ± 5	0.625 ± 0.011	0.569 ± 0.011	0.518 ± 0.011
x2 = 0.563	870.7 ± 0.7	866.6 ± 0.7	862.4 ± 0.7	1196 ± 5	1176 ± 5	1156 ± 5	0.571 ± 0.011	0.521 ± 0.011	0.476 ± 0.011
x2 = 0.6587	876.3 ± 0.7	872 ± 0.7	867.6 ± 0.7	1176 ± 5	1156 ± 5	1136 ± 5	0.525 ± 0.011	0.48 ± 0.011	0.44 ± 0.011
x2 = 0.744	882.2 ± 0.7	877.6 ± 0.7	873.1 ± 0.7	1156 ± 5	1136 ± 5	1116 ± 5	0.482 ± 0.011	0.443 ± 0.011	0.407 ± 0.011
x2 = 0.8189	888.4 ± 0.7	883.6 ± 0.7	878.8 ± 0.7	1140 ± 5	1120 ± 5	1100 ± 5	0.451 ± 0.011	0.412 ± 0.011	0.381 ± 0.011
x2 = 0.8855	894.5 ± 0.7	889.6 ± 0.7	884.6 ± 0.7	1124 ± 5	1104 ± 5	1084 ± 5	0.419 ± 0.011	0.385 ± 0.011	0.355 ± 0.01
x2 = 0.9459	901.2 ± 0.7	896 ± 0.7	890.8 ± 0.7	1108 ± 5	1088 ± 5	1068 ± 5	0.398 ± 0.011	0.366 ± 0.01	0.336 ± 0.01

CCOC=O [ethyl methanoate]
[1]
Conditions	mass density [kg/m3]	speed of sound [m/s]	viscosity [mPa·s]
303.15 K	907.8 ± 0.7	1092 ± 5	0.373 ± 0.011
308.15 K	902.6 ± 0.7	1072 ± 5	0.345 ± 0.01
313.15 K	897.1 ± 0.7	1052 ± 5	0.324 ± 0.01

CCOC=O [ethyl methanoate] + CC(C)Cc1ccccc1
[2], x1 = 1
Conditions	mass density [kg/m3]	speed of sound [m/s]	viscosity [mPa·s]
303.15 K	907.8 ± 0.7	1092 ± 5	0.373 ± 0.011
308.15 K	902.6 ± 0.7	1072 ± 5	0.345 ± 0.01
313.15 K	897.1 ± 0.7	1052 ± 5	0.324 ± 0.01

CCOC=O [ethyl methanoate] + CC(C)c1ccccc1
[2], x1 = 1
Conditions	mass density [kg/m3]	speed of sound [m/s]	viscosity [mPa·s]
303.15 K	907.8 ± 0.7	1092 ± 5	0.373 ± 0.011
308.15 K	902.6 ± 0.7	1072 ± 5	0.345 ± 0.01
313.15 K	897.1 ± 0.7	1052 ± 5	0.324 ± 0.01

CCOC=O [ethyl methanoate] + CCCCc1ccccc1
[2], x1 = 1
Conditions	mass density [kg/m3]	speed of sound [m/s]	viscosity [mPa·s]
303.15 K	907.8 ± 0.7	1092 ± 5	0.373 ± 0.011
308.15 K	902.6 ± 0.7	1072 ± 5	0.345 ± 0.01
313.15 K	897.1 ± 0.7	1052 ± 5	0.324 ± 0.01

CCOC=O [ethyl methanoate] + c1ccccc1
[2]
Conditions	mass density, 303.15 K [kg/m3]	mass density, 308.15 K [kg/m3]	mass density, 313.15 K [kg/m3]	speed of sound, 303.15 K [m/s]	speed of sound, 308.15 K [m/s]	speed of sound, 313.15 K [m/s]	viscosity, 303.15 K [mPa·s]	viscosity, 308.15 K [mPa·s]	viscosity, 313.15 K [mPa·s]
x1 = 0.1089	870.4 ± 0.7	865.8 ± 0.7	861.3 ± 0.7	1252 ± 6	1228 ± 6	1208 ± 5	0.529 ± 0.011	0.499 ± 0.011	0.468 ± 0.011
x1 = 0.2169	873.5 ± 0.7	868.9 ± 0.7	864.3 ± 0.7	1228 ± 6	1208 ± 5	1188 ± 5	0.493 ± 0.011	0.46 ± 0.011	0.428 ± 0.011
x1 = 0.3189	876.9 ± 0.7	872.2 ± 0.7	867.5 ± 0.7	1208 ± 5	1188 ± 5	1168 ± 5	0.462 ± 0.011	0.431 ± 0.011	0.401 ± 0.011
x1 = 0.4239	880.8 ± 0.7	876 ± 0.7	871.2 ± 0.7	1188 ± 5	1168 ± 5	1148 ± 5	0.439 ± 0.011	0.408 ± 0.011	0.38 ± 0.011
x1 = 0.5253	884.9 ± 0.7	880.1 ± 0.7	875.2 ± 0.7	1172 ± 5	1152 ± 5	1132 ± 5	0.422 ± 0.011	0.392 ± 0.011	0.364 ± 0.01
x1 = 0.6233	889.1 ± 0.7	884.2 ± 0.7	879.2 ± 0.7	1156 ± 5	1136 ± 5	1116 ± 5	0.41 ± 0.011	0.38 ± 0.011	0.354 ± 0.01
x1 = 0.7211	893.6 ± 0.7	888.6 ± 0.7	883.4 ± 0.7	1140 ± 5	1120 ± 5	1100 ± 5	0.399 ± 0.011	0.37 ± 0.01	0.348 ± 0.01
x1 = 0.8148	898.1 ± 0.7	893 ± 0.7	887.7 ± 0.7	1124 ± 5	1104 ± 5	1084 ± 5	0.389 ± 0.011	0.364 ± 0.01	0.338 ± 0.01
x1 = 0.9088	903 ± 0.7	897.8 ± 0.7	892.3 ± 0.7	1108 ± 5	1088 ± 5	1068 ± 5	0.379 ± 0.011	0.355 ± 0.01	0.329 ± 0.01
x1 = 1	907.8 ± 0.7	902.6 ± 0.7	897.1 ± 0.7	1092 ± 5	1072 ± 5	1052 ± 5	0.373 ± 0.011	0.345 ± 0.01	0.324 ± 0.01

CC(C)c1ccccc1 [isopropylbenzene]
[1]
Conditions	mass density [kg/m3]	speed of sound [m/s]	viscosity [mPa·s]
303.15 K	852.7 ± 0.7	1280 ± 6	0.69 ± 0.011
308.15 K	849 ± 0.7	1264 ± 6	0.651 ± 0.011
313.15 K	845.4 ± 0.7	1248 ± 6	0.611 ± 0.011

CC(C)c1ccccc1 [isopropylbenzene] + CCOC=O
[2]
Conditions	mass density, 303.15 K [kg/m3]	mass density, 308.15 K [kg/m3]	mass density, 313.15 K [kg/m3]	speed of sound, 303.15 K [m/s]	speed of sound, 308.15 K [m/s]	speed of sound, 313.15 K [m/s]	viscosity, 303.15 K [mPa·s]	viscosity, 308.15 K [mPa·s]	viscosity, 313.15 K [mPa·s]
x2 = 0	852.7 ± 0.7	849 ± 0.7	845.4 ± 0.7	1280 ± 6	1264 ± 6	1248 ± 6	0.69 ± 0.011	0.651 ± 0.011	0.611 ± 0.011
x2 = 0.1603	857 ± 0.7	853.2 ± 0.7	849.4 ± 0.7	1252 ± 6	1240 ± 6	1228 ± 6	0.63 ± 0.011	0.585 ± 0.011	0.544 ± 0.011
x2 = 0.3007	861.7 ± 0.7	857.7 ± 0.7	853.7 ± 0.7	1228 ± 6	1216 ± 5	1200 ± 5	0.577 ± 0.011	0.537 ± 0.011	0.499 ± 0.011
x2 = 0.4234	866.5 ± 0.7	862.4 ± 0.7	858.3 ± 0.7	1204 ± 5	1192 ± 5	1176 ± 5	0.534 ± 0.011	0.497 ± 0.011	0.46 ± 0.011
x2 = 0.5352	871.9 ± 0.7	867.7 ± 0.7	863.3 ± 0.7	1180 ± 5	1168 ± 5	1152 ± 5	0.5 ± 0.011	0.463 ± 0.011	0.431 ± 0.011
x2 = 0.633	877.4 ± 0.7	872.9 ± 0.7	868.4 ± 0.7	1160 ± 5	1148 ± 5	1132 ± 5	0.468 ± 0.011	0.437 ± 0.011	0.409 ± 0.011
x2 = 0.7203	882.8 ± 0.7	878.2 ± 0.7	873.7 ± 0.7	1144 ± 5	1132 ± 5	1116 ± 5	0.444 ± 0.011	0.414 ± 0.011	0.386 ± 0.011
x2 = 0.801	888.9 ± 0.7	884.2 ± 0.7	879.3 ± 0.7	1128 ± 5	1116 ± 5	1100 ± 5	0.424 ± 0.011	0.394 ± 0.011	0.367 ± 0.01
x2 = 0.8724	894.8 ± 0.7	890 ± 0.7	884.9 ± 0.7	1116 ± 5	1100 ± 5	1084 ± 5	0.407 ± 0.011	0.382 ± 0.011	0.359 ± 0.01
x2 = 0.9399	901.3 ± 0.7	896.4 ± 0.7	891.1 ± 0.7	1104 ± 5	1088 ± 5	1068 ± 5	0.39 ± 0.011	0.362 ± 0.01	0.34 ± 0.01
